In ChEMBL document CHEMBL1909046, “DrugMatrix in vitro pharmacology data”:
Where a SMILES comes first, the peptide text is derived from it. Bridges are numbered along the chain shown (N, C = ends). [ ]: non-standard residue; d: D form. The star is where a group is joined. Threoninol(2S,3R) = C[C@@H](O)[C@H](CO)N*

Tests used:
[1] = target: Beta-1 adrenergic receptor (Homo sapiens, UniProt P08588); test: DRUGMATRIX: Adrenergic beta1 radioligand binding (ligand: [125I] Cyanopindolol); assay type: cell membranes, CHO-K1, Membrane; settings: cho-k1; Not Active = under 50% inhibition at 10 µM
[2] = DRUGMATRIX: ATPase, Na+/K+ enzyme inhibition (substrate: ATP); assay type: tissue-based, Sus scrofa, Heart; settings: Not Active = under 50% inhibition at 10 µM
[3] = target: 5-hydroxytryptamine receptor 4 (Cavia porcellus, UniProt O70528); assay type: cell membranes, Dunkin-Hartley, Striatum, Membrane; also: in other assays of this panel Not Active means under 50% inhibition at 10 µM
Melanocortin receptor 5 = Melanocortin receptor 5 (Homo sapiens, UniProt P33032); assay type: cell membranes, Membrane; settings: hek293; also: in other assays of this panel Not Active means under 50% inhibition at 10 µM
[4] = target: T1, Neuropeptide Y receptor type 1 (Homo sapiens, UniProt P25929); assay type: cell membranes, Membrane; settings: sk-n-mc; also: in other assays of this panel Not Active means under 50% inhibition at 10 µM
T1 sequence (P25929 whole entry): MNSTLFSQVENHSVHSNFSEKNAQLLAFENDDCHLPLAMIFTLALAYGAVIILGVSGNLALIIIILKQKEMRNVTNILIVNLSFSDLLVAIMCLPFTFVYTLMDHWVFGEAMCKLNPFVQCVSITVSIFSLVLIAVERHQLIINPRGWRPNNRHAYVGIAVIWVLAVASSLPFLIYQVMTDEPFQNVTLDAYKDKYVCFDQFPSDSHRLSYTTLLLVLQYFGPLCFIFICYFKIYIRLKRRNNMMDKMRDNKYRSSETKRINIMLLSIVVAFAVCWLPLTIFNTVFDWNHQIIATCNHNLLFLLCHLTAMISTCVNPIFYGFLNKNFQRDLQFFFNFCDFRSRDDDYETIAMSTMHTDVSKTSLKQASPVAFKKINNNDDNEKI

[5] = target: Tyrosine-protein kinase Lck (Homo sapiens, UniProt P06239); test: DRUGMATRIX: Protein Tyrosine Kinase, LCK enzyme inhibition (substrate: Poly(Glu:Tyr)); assay type: cell-based, Insect cells; settings: insect cells; Not Active = under 50% inhibition at 10 µM
Adenosine receptor A1 = target: T2, Adenosine receptor A1 (Homo sapiens, UniProt P30542); assay type: cell membranes, Membrane; settings: cho;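 also: radioligand binding assay at the adenosine A1 receptor, with DPCPX serving as the labelled ligand; in other assays of this panel Not Active means under 50% inhibition at 10 µM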
T2 sequence (P30542 whole entry): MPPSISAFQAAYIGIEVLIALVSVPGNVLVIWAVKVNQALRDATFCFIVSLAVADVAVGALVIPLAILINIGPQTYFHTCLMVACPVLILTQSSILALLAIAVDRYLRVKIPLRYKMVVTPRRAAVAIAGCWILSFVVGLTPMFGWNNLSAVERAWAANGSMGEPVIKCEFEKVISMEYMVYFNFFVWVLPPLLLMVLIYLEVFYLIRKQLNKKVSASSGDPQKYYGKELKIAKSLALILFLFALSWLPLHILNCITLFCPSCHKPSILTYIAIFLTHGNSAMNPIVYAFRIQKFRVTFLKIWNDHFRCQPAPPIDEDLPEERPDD

Sequence of Beta-1 adrenergic receptor (P08588 whole entry): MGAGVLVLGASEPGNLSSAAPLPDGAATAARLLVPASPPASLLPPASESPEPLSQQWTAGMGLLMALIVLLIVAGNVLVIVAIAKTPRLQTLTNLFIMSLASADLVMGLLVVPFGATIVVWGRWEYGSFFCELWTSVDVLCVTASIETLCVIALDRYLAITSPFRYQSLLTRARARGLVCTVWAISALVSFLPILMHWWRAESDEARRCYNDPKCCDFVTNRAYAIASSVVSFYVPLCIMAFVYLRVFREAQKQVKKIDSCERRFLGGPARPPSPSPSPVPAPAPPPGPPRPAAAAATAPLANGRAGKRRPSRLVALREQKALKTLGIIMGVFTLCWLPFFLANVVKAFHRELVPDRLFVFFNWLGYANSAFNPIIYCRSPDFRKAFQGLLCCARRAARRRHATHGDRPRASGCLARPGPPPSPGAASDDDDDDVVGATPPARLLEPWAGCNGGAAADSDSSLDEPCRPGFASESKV
Sequence of Melanocortin receptor 5 (P33032 whole entry): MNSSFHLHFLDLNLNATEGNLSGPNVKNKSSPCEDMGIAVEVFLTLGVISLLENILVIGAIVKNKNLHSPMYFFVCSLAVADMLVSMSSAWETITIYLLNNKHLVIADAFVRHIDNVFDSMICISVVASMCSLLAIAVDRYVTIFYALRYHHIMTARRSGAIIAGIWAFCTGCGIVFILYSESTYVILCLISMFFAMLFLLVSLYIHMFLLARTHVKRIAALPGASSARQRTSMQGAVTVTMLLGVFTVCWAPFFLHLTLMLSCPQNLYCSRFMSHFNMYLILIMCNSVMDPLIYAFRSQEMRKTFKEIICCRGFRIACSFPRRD
Sequence of Tyrosine-protein kinase Lck (P06239 whole entry): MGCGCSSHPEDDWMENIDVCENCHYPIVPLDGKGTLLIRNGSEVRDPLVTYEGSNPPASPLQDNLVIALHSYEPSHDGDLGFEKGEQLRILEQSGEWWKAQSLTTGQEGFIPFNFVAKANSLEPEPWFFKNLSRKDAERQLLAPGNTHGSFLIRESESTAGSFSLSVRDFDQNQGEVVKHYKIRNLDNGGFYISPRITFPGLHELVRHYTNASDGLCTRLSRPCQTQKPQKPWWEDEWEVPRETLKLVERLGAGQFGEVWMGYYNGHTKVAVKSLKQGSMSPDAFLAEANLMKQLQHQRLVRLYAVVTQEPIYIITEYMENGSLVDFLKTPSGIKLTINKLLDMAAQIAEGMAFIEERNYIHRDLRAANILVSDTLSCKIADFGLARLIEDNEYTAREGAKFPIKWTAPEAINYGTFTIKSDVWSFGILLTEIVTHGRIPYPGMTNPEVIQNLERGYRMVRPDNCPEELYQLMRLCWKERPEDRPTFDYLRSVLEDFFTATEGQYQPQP
Sequence of 5-hydroxytryptamine receptor 4 (O70528 whole entry): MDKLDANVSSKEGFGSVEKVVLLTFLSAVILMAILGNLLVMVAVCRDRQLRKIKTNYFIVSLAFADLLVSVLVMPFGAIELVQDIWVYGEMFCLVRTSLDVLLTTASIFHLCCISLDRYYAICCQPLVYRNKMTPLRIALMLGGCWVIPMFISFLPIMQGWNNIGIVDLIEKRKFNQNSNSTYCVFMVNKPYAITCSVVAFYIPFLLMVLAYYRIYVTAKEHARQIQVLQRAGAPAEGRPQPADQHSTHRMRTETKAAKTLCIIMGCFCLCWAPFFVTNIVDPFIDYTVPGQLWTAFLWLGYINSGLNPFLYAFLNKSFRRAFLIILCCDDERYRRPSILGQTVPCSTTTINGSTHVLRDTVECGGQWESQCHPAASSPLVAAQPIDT

COc1ccccc1C(=O)N1CCC(Cc2ccccc2)CC1
Not Active: IC50 [1] | IC50 [2] | Ki [2] | IC50 [3] | IC50 (Melanocortin receptor 5) | IC50 [4] | IC50 [5] | IC50 (Adenosine receptor A1)

Cc1ccccc1C(=O)N1CCC(Cc2ccccc2)CC1
Not Active: IC50 [1] | IC50 [2] | Ki [2] | IC50 [3] | IC50 (Melanocortin receptor 5) | IC50 [4] | IC50 [5] | IC50 (Adenosine receptor A1)

O=C1CC[C@H](N2C(=O)c3ccccc3C2=O)C(=O)N1
Not Active: IC50 [1] | IC50 [2] | Ki [2] | IC50 [3] | IC50 (Melanocortin receptor 5) | IC50 [4] | IC50 [5] | IC50 (Adenosine receptor A1)

N=C(Nc1ccccc1)Nc1ccccc1
Not Active: IC50 [1] | IC50 [2] | Ki [2] | IC50 [3] | IC50 (Melanocortin receptor 5) | IC50 [4] | IC50 [5] | IC50 (Adenosine receptor A1)

C[C@@H](O)[C@H](CO)NC(=O)[C@@H]1CSSC[C@H](NC(=O)[C@H](N)Cc2ccccc2)C(=O)N[C@@H](Cc2ccccc2)C(=O)N[C@H](Cc2c[nH]c3ccccc23)C(=O)N[C@@H](CCCCN)C(=O)N[C@@H]([C@@H](C)O)C(=O)N1 (H-[dF]CF[dW]KTC-{Threoninol(2S,3R)}; disulfide 2-7)
Not Active: IC50 [1] | IC50 [2] | Ki [2] | IC50 [3] | IC50 (Melanocortin receptor 5) | IC50 [4] | IC50 [5] | IC50 (Adenosine receptor A1)

S=C=Nc1cccc2ccccc12 [1-NAPHTHYLISOTHIOCYANATE]
Not Active: IC50 [1] | IC50 [2] | Ki [2] | IC50 [3] | IC50 (Melanocortin receptor 5) | IC50 [4] | IC50 [5] | IC50 (Adenosine receptor A1)

C[C@](O)(CS(=O)(=O)c1ccc(F)cc1)C(=O)Nc1ccc(C#N)c(C(F)(F)F)c1 [(R)-BICALUTAMIDE]
Not Active: IC50 [1] | IC50 [2] | Ki [2] | IC50 [3] | IC50 (Melanocortin receptor 5) | IC50 [4] | IC50 [5] | IC50 (Adenosine receptor A1)

CCCC(=O)Nc1ccc(OCC(O)CNC(C)C)c(C(C)=O)c1 (stereo not drawn) [ACEBUTOLOL]
Not Active: IC50 [2] | Ki [2] | IC50 [3] | IC50 (Melanocortin receptor 5) | IC50 [4] | IC50 [5] | IC50 (Adenosine receptor A1)

CC(=O)Nc1ccc(O)cc1 [ACETAMINOPHEN]
Not Active: IC50 [1] | IC50 [2] | Ki [2] | IC50 [3] | IC50 (Melanocortin receptor 5) | IC50 [4] | IC50 [5] | IC50 (Adenosine receptor A1)

CN(C)c1ccc(C(=C2C=CC(=[N+](C)C)C=C2)c2ccc(N(C)C)cc2)cc1.[Cl-] [GENTIAN VIOLET]
Not Active: IC50 [2] | Ki [2] | IC50 [3] | IC50 (Melanocortin receptor 5) | IC50 [4] | IC50 [5] | IC50 (Adenosine receptor A1)
